Experimental data published in US20260265331A1, “GLYCOSYLATED NEUROPEPTIDE DERIVATIVE INCLUDING NEUROPEPTIDE SEQUENCE AND SUGAR CHAIN, PHARMACEUTICAL COMPOSITION, INTRANASAL/NASAL DROP FORMULATION, AND USE OF GLYCOSYLATED NEUROPEPTIDE DERIVATIVE” (TOKYO UNIVERSITY OF SCIENCE FOUNDATION, priority 2022, published 2026).
Where no end group is shown, it is not given here. The star is where a group is joined. Cam = NC(=O)C*

Legend:
[1] = Distribution in brain by immunostaining of frozen brain sections (Examples 6 and 7); type: in vivo, mice; details: Example 7, 3.0 nmol/mouse intranasal
Description: The brain was isolated 5 minutes after the administration and 20 minutes after the administration, respectively.
(§1) The brain isolated 5 minutes after the intranasal administration was subjected to infiltration fixation with 4% PFA at 4° C. overnight without performing perfusion fixation. The isolation of the brain 20 minutes after the intranasal administration was performed by the following process.
The mouse was fixed in a supine position under anesthesia with isoflurane, and the chest was incised. The tissue was fixed by perfusing with PBS, and subsequently with 4% PFA, from the left chamber of the heart throughout the whole body. The isolated brain was preserved in a 4% PFA solution. On the day following the isolation, the brain samples were substituted with 20% sucrose overnight (4° C.), and further with 30% sucrose overnight (4° C.). Thereafter, a frozen section with a thickness of 30 μm was prepared using a cryostat (CM3050S; Leica Microsystems).
The frozen brain section was mounted on a slide glass, and a circle was drawn around the section with a liquid blocker. A blocking buffer was added inside the circle and the section was subjected to blocking for 30 minutes at room temperature. Thereafter, the section was added with a first antibody solution including a GLP-2 polyclonal antibody, diluted by 200 times with a blocking solution, and subjected to incubation for 1 hour at room temperature. After rinsing three times with 1×PBS, the section was added with a second antibody solution including Alexa Fluor (trademark) 568 Goat Anti-Mouse IgG H&L, diluted by 500 times with a BSA/PBS solution, and subjected to incubation for 1 hour at room temperature. After rinsing three times with 1×PBS, the section was mounted with ProLong (trademark) Diamond Antifade Mountant. After confirming the solidification of the mountant, the section was subjected to fluorescent observation and imaging with a confocal laser microscope (TCS SP8; Leica) and a software (Leica Application Suite X Software; Leica).
Mice were intranasally administered with 16% DMSO or the GLP-2 derivatives (3.0 nmol/mouse), and the brain was isolated 5 minutes, 10 minutes, 20 minutes and 60 minutes after the administration.
as §1, with “isolated 5 minutes or 10 minutes after” for “isolated 5 minutes after”, “20 minutes or 60 minutes after the” for “20 minutes after the”
Sections of the olfactory bulb (OB) including olfactory nerves, pons/principal sensory nucleus of trigeminal nerve (Pr5), hippocampus (HIP) and dorsomedial nucleus of the hypothalamus (DMH) were prepared by referring to the Nissil staining images and the brain map (Paxinos and Franklin, 2003).
The frozen brain section was mounted on a slide glass, and a circle was drawn around the section with a liquid blocker. A blocking buffer was added inside the circle and the section was subjected to blocking for 30 minutes at room temperature. Thereafter, the section was added with a first antibody solution including a GLP-2 polyclonal antibody, diluted by 200 times with a blocking solution, and subjected to incubation for 1 hour at room temperature. […]

[2] = Quantification by GLP-2 ELISA of amount of migration to brain; type: in vivo, mice; details: 6.0 nmol/mouse intranasal, brain isolated 20 minutes after administration; FIG. 5
Description: Mice were intranasally administered with 16% DMSO or the GLP-2 derivatives (6.0 nmol/mouse). The brain was isolated 20 minutes after the administration, and homogenized with BioMasher II (Nippi, Tokyo, Japan). A sample was prepared by performing centrifugal separation by 1000×g (4° C.) for 15 minutes and collecting a supernatant. The amount of the GLP-2 derivative in the sample was quantified using a GLP-2 ELISA kit. Specifically, a cleaning process including filling each well of a measurement plate with a cleaning fluid (350 μL) and suctioning the cleaning fluid with a pipette was performed three times. […] Finally, an enzyme reaction stop solution (100 μL) was added and an absorbance at 490 nm was measured with ARVO (PerkinElmer Japan Co., Ltd., Kanagawa, Japan) to calculate the concentration of a GLP-2 derivative.
Mice were intranasally administered with the PAS-CPP-GLP-2 derivative prepared in Example 1 (C-terminus 11-sugar, no linker, C11), the PAS-CPP-GLP-2 derivative (N-terminus 11-sugar, no linker, N11), and the PAS-CPP-GLP-2 derivative glycosylated via a C6 alkylene group (N-terminus 11-sugar, with C6 linker, C6), respectively (6.0 nmol/mouse). […] The amount of the GLP-2 derivative in the sample was quantified using a GLP-2 ELISA kit. […]

- fluorescence at HIP and DMH ([1]; 20 minutes, FIG. 7B): intense fluorescence was observed
- fluorescence at HIP and DMH ([1]; 60 minutes, FIG. 7C): fluorescence was not observed
- amount of GLP-2 derivative in brain (ELISA) [2]: below the detection limit
Substance: FFLIPKGRRRRRRRRGGHADGSFSDEMNTILDNLAARDFINWLIQTKITDC(Cam)-OH [PAS-CPP-GLP-2 derivative (no sugar)]
- fluorescence at OB and Pr5 ([1]; 5 minutes, FIG. 7A): a significant degree of fluorescence was observed
- fluorescence at OB ([1]; 20 minutes, FIG. 7B): a significant degree of fluorescence was observed at OB
- fluorescence intensity at OB or Pr5 relative to 5 minutes ([1]; 20 minutes, FIG. 7B): weaker than the fluorescence observed 5 minutes after the administration
